Measured values: patent US4395391A, “Unsymmetrically substituted dicarboxylic-acid-bis-(2,4,6-triiodo-anilides), their preparation, and x-ray contrast media containing same” (priority 1980, dated 1983)

How the values were obtained:
[1] = distribution coefficient butanol/water, pH 7.4; type: physicochemical; conditions: meglumine salts
Source text: By providing the compounds of this invention wherein only one of the two 5,5',-position hydrogen atoms is substituted, new contrast-producing substances are obtained. […] This can be shown by comparing the values of protein binding, compatibility, biliary and renal excretion of the meglumine salts of the conventional agent iodipamide (B) and an agent of this invention, hexane-diacid-1-(3-carboxy-2,4,6-triiodo-anilide)-6-(3-carboxy-5-N-methyl- carbamoyl-2,4,6-triido-anilide) (A).

rat [2] = test: LD50, i.v., rat; type: in vivo; conditions: meglumine salt solutions 180 mg iodine per ml, 0.8 ml/minute
Procedure: (1) The contrast media were injected in the form of meglumine salt
solutions of 180 mg of iodine per ml at a rate of 0.8 ml/minute into male

rat [3] = test: ED50 rat, pericerebrally (excitation, grave behavioral anomalies, coma and death over 24 h); type: in vivo; conditions: pericerebral (intracerebral) injection, 0.4 ml, rats about 100 g
Procedure: (2) Male and female rats of about 100 g in weight were injected
intracerebrally between the cheekbone and the occiputal bone through a
natural bone hole of the cranium while being slightly anesthesized with
ether. 0.4 ml injections of contrast media solutions of various
concentrations were used according to the method of Valzelli. The
injection was carried out with a Hamilton syringe 710 N for which the
penetration depth is limited to 10 mm. Depending on the preparation, at
(§1) least 4 doses were tested on 10 animals. The effectiveness criteria used
(§2) are the states of excitation, grave behavioral anomalies, coma and death
(§3) over the period of 24 h.

rat [4] = test: ED50 rat, intracisternal; type: in vivo; conditions: 200-250 g rat, diluted with 3% mannite solution
Procedure: as §1, §2, §3
(3) With the test equipment essentially the same ss in (2), 200-250 g rat
are injected with contrast media in the cisterna suboccipitalis. The
contrast media were diluted with a 3% mannite solution to adjust the […]

dog liver = test: computer tomography: maximum enrichment of contrast medium in dog liver; type: in vivo, dog (beagle); conditions: 360 mg I/kg, intravenous, meglumine salt solutions 180 mg of I/ml, beagles
Source text: The extraordinarily pronounced enrichment of the compounds of this invention is shown in Table 2 listing the maximal enrichment in the liver following intravenous administration of the meglumine salt solutions of the prior art iosefamic acid (D) and of a compound of this invention, 3-oxapentane-diacid-1-([…]-2,4,6-triiodo-N-methylanilide)-5-(3-carboxy-5-N-methylcarbamoyl-2,4,6-triiodo-anilide) (E).
The values were obtained from healthy male and female beagles (Schering, breeder) with weights of 9-14 kg. The meglumine salt solutions contained 180 mg of I/ml.
The investigation of the x-ray density of the liver before administration of the contrast media and every 5 minutes up to 90 minutes thereafter was carried out using a full-body scanner of the EMI CT 5005/12 type, which operates on the basis of the rotation-translation principle. The scanning time was 20 seconds, the tube voltage 120 kv. For an image matrix of 320×320 elements, the standard deviation from the mean value of a normalized water phantom was 1.6% (i.e., +/-8 EU=EMI units). The computer tomograms were analyzed always on the same liver area by means of the analyzer "IVC" of the EMI Co.

liver parenchyma [5] = conditions: cited from earlier work
liver parenchyma [6] = conditions: cited from earlier work; remark: listed apart in the source

SMILES | distribution coefficient, butanol/water, pH 7.4 [1] | LD50, i.v., rat (rat [2]) | rat, pericerebrally ED50 (rat [3]) | rat, intracisternal ED50 (rat [4]) | Maximum enrichment in dog liver (dog liver) [EMI units] | time of maximum enrichment in dog liver (min. p. appl.) (dog liver) | liver concentration for diagnosis improvement, dog (liver parenchyma [5]) | liver concentration for diagnosis improvement, humans (liver parenchyma [6])
CNC(=O)c1c(I)c(NC(=O)CCCCC(=O)Nc2c(I)cc(I)c(C(=O)O)c2I)c(I)c(C(=O)O)c1I [Compound A, Hexane-diacid-1-(3-carboxy-2,4,6-triiodo-anilide)-6-(3-carboxy-5-N-methylcarbamoyl-2,4,6-triiodo-anilide)] | 0.083 +/- 0.001 | 5.5 g of I/kg | 17.1 (11.8-23.6) mg of I/kg | 15.6 (11.5-21.1) mg of I per kg | – | – | – | –
CNC(=O)c1c(I)c(NC(=O)CCCCCCCCC(=O)Nc2c(I)c(C(=O)O)c(I)c(C(=O)NC)c2I)c(I)c(C(=O)O)c1I [D, iosefamic acid] | – | – | – | – | 22.8 | 80 | still adequate liver concentration for diagnosis improvement in the dog | not in humans
CNC(=O)c1c(I)c(NC(=O)COCC(=O)N(C)c2c(I)cc(I)c(C(=O)O)c2I)c(I)c(C(=O)O)c1I [E, 3-oxapentane-diacid-1-(3-carboxy-2,4,6-triiodo-N-methylanilide)-5-(3-carboxy-5-N-methylcarbamoyl-2,4,6-triiodo-anilide)] | – | – | – | – | – | 90 | – | –
O=C(CCCCC(=O)Nc1c(I)cc(I)c(C(=O)O)c1I)Nc1c(I)cc(I)c(C(=O)O)c1I [B, iodipamide] | 0.278 +/- 0.008 | 2.6 g of I/kg | 6.35 (5.11-7.44) mg of I/kg | 1.07 (0.54-1.83) mg of I per kg | – | – | – | –
